Experimental data from paper PMC12163317, “The food effect on the pharmacokinetics of TQB3616 capsule in Chinse healthy subjects: a randomized, open-label, single-center, two-period, two-sequence crossover phase I clinical trial” (Frontiers in Pharmacology, 2025).

What was measured:
[1] = Food effect on pharmacokinetics of TQB3616 capsule, crossover phase I trial, plasma concentration by LC-MS/MS; type: in vivo, human; details: for AUC_Extrap / t1/2 / λZ / AUC0-t / AUC0-∞ / Cmax: mean ± SD; for AUC0-t / AUC0-∞ / Cmax / Tmax: single oral 180 mg; for Tmax: median (min, max)
Description: This was a randomized, open-label, single-center, two-period, two-sequence crossover early phase I clinical trial to evaluate the food effect on the pharmacokinetics of TQB3616 capsules in healthy subjects. The trial was conducted at Affiliated Hospital of Changchun University of Chinese Medicine and the protocol was approved by the Ethics Committee of the Affiliated Hospital of Changchun University of Chinese Medicine (CCZYFYLL 2021-006). The ethical approval process of this study complied with the requirements of Good Clinical Practice (GCP), the Declaration of Helsinki and the relevant domestic laws and regulations. All subjects had provided written informed consent before the study.
Subjects were admitted to the research center 2 days prior to drug administration and randomly assigned to either Group A or Group B at a 1:1 ratio. Group A, subjects received the study drug under fasted condition in period one and under fed condition in period 2. Conversely, in Group B, subjects received the study drug under fed conditions in the first period and under fasting conditions in the second period. The study employed a crossover design, with a washout period of at least 19 days between the two treatment periods.
The study protocol mandated that subjects take the medication after an overnight fast lasting at least 10 h. In a fasted condition, subjects consumed a 180 mg TQB3616 capsule with 240 mL of warm water, ensuring they remained and fasted for an additional 4 h post-dose. In a fed condition, subjects consumed a 180 mg TQB3616 capsule with 240 mL of warm water after consuming a high-fat, high-calorie breakfast (approximately 800–1,000 kcal, Supplementary table) 30 min prior to adminstration, subjects began their breakfast and completed the meal within the next 30 min. Capsules were swallowed whole without chewing.
Pharmacokinetic (PK) samples were collected at specific times: 0 h (within 60 min prior to dosing), 1 h, 2 h, 4 h, 5 h, 5.5 h, 6 h, 6.5 h, 7 h, 7.5 h, 8 h, 12 h, 24 h, 48 h, 72 h, 120 h, 168 h and 264 h post-dosing, totaling 18 sampling points. At each scheduled time, approximately 3 mL of blood was collected with a pre-chilled EDTA-K2 tubes. After gentle 180° inversion (×4) for homogenization, samples were immediately transferred to an ice bath. All blood specimens were centrifuged at 3,500 rpm for 10 min within 30 min of collection. The obtained plasma was aliquoted and stored at −80°C ± 10°C until batch analysis.
(§1) Plasma concentrations of TQB3616 were quantified using a validated liquid chromatography-tandem mass spectrometry (LC-MS/MS) method. Calibration standards and quality control samples (K2-EDTA plasma matrix) were prepared using [D8]-TQB3616 as the internal standard. Protein precipitation extraction from 100 μL plasma was performed followed by chromatographic separation on a C18 column (50 × 2.1 mm, 1.7 μm). Mass transitions m/z 447.1→431.3 (TQB3616) and m/z 455.2→439.3 (IS) were monitored for quantification.
Phoenix WinNonlin (version 8.3.4) was used to calculate pharmacokinetic parameters, including: […] (Tmax), area under the curve (AUC) from time zero to the last measurable concentration (AUC0-t), AUC from time zero to observed infinity (AUC0- ∞ ), peak concentration (Cmax),terminal half-life of analyte in plasma (t1/2), terminal rate constant (λz), and extrapolated AUC percentage (AUCextrp (%)). Other statistical analyses were performed using SAS (version 9.4). All tests were considered statistically significant at p < 0.05.
Based on the Pharmacokinetics Parameter Set (PKPS), main parameters were summarized by fasting/fed groups using sample size, arithmetic mean, standard deviation, coefficient of variation, median, minimum, maximum, as well as geometric mean and geometric coefficient of variation.
For the food-effect equivalence analysis set (BES), a mixed-effects model analyzed natural log-transformed Cmax, AUC0-t, and AUC0- ∞ . […]

[2] = Safety analysis, adverse events (CTCAE version 5.0) in the food-effect trial; type: in vivo, human
From the text: The safety analysis utilized the safety data set (SS), comprising all subjects receiving TQB3616 with recorded safety assessments. The safety assessments indicators included adverse events, serious adverse events, laboratory tests (routine blood, blood biochemistry, urinalysis, and coagulation), vital signs ([…]), 12-lead electrocardiogram, and physical examination. The frequency, type, extent, and comorbid medications of all treatment-emergent adverse events (TEAEs) occurring during treatment were recorded systematically documented. For severity, adverse events were rated and documented using the National Cancer Institute-Common Terminology Criteria for Adverse Events (CTCAE) version 5.0. The Medical Dictionary for Regulatory Activities (MedDRA) was used to encode the classification of adverse events. Any adverse events observed during the trial were monitored until resolution, return to baseline levels, or stabilization the subject’s condition.

[3] = Stability of TQB3616 in LC-MS/MS method validation (K2-EDTA plasma matrix); type: in vitro ADME
Description: as §1
This study undertook a comprehensive validation of the LC-MS/MS methodology for quantifying TQB3616. The validated quantitative range for TQB3616 was established between 0.3 ng/mL and 300 ng/mL. […] Sample dilution integrity was confirmed at 20-fold dilution.

[4] = set-up: method as in unpublished data; details: ref unpublished data, cited from earlier work
CDK4/6 = test system: CDK4/6; set-up: method as in unpublished data; details: preclinical; ref unpublished data; cited from earlier work
[5] = test system: HR+/HER2-breast cancer MCF-7 cells; set-up: method as in unpublished data; details: in vitro; ref unpublished data; cited from earlier work
MCF-7 tumor = test system: MCF-7 tumor; set-up: method as in unpublished data; details: ref unpublished data, cited from earlier work
[6] = set-up: method as in unpublished data; details: ref unpublished data; cited from earlier work
[7] = coefficient of variation, equivalence analysis fed vs fasted
[8] = both periods, 16 subjects in safety set

CC(C)c1c2cc(-c3nc(Nc4ccc(N5CCNCC5)cn4)ncc3F)ccc2nn1C [TQB3616] showed an AUC_Extrap ([1]; Fasted (n = 11)) of 7.57 ± 3.29%, a t1/2 ([1]; Fasted (n = 11)) of 71.27 ± 11.83 h and a λZ ([1]; Fasted (n = 11)) of 0.01 ± 0.002 h⁻¹. The AUC0-t ([1]; Fasted (n = 11)) was 3,634.80 ± 2,174.18 h ^a ng/mL, the “AUC0-∞” value ([1]; Fasted (n = 11)) was 3,920.86 ± 2,325.20 h ^a ng/mL and the Cmax ([1]; Fasted (n = 11)) was 60.39 ± 37.17 ng/mL. The Tmax ([1]; Fasted (n = 11)) was 6.0 (5.0, 24.0) h, the “AUC0-t GeoMean” value ([1]; Fasted, n = 11) was 3,303.72 h*ng/mL and the “AUC0-∞ GeoMean” value ([1]; Fasted, n = 11) was 3,584.79 h*ng/mL. The “Cmax GeoMean” value ([1]; Fasted, n = 11) was 48.47 ng/mL, the AUC_Extrap ([1]; Fed (n = 13)) was 6.97 ± 2.90% and the t1/2 ([1]; Fed (n = 13)) was 68.95 ± 10.68 h. The λZ ([1]; Fed (n = 13)) was 0.01 ± 0.002 h⁻¹, the AUC0-t ([1]; Fed (n = 13)) was 5305.30 ± 1948.11 h ^a ng/mL and the “AUC0-∞” value ([1]; Fed (n = 13)) was 5710.59 ± 2,100.68 h ^a ng/mL. For the same compound, the Cmax ([1]; Fed (n = 13)) was 75.39 ± 28.34 ng/mL, the Tmax ([1]; Fed (n = 13)) was 7.0 (7.0, 12.0) h and the “AUC0-t GeoMean” value ([1]; Fed, n = 13) was 4792.51 ng·h/mL. The “AUC0-∞ GeoMean” value ([1]; Fed, n = 13) was 5130.98 ng·h/mL, the “Cmax GeoMean” value ([1]; Fed, n = 13) was 71.76 ng/mL and the “AUC0-t CV” value [1, 7] was 26.51%. For the same compound, the “AUC0-∞ CV” value [1, 7] was 26.07%, the “Cmax CV” value [1, 7] was 53.42% and the “AUC0-t Fed/Fasted Ratio (geometric mean ratio)” value ([1]; fasted as the reference) was 145.06%. For the same compound, the “AUC0-∞ Fed/Fasted Ratio (geometric mean ratio)” value ([1]; fasted as the reference) was 143.13%, the “Cmax Fed/Fasted Ratio (geometric mean ratio)” value ([1]; fasted as the reference) was 148.04% and the AUC0-t ([1]; fasting) was 3,634.80 ± 2,174.18 h·ng/mL. For the same compound, the “AUC0-∞” value ([1]; fasting) was 3,920.86 ± 2,325.20 h·ng/mL, the “increase of AUC0-t by food intake” value ([1]; fed compared with fasted) was 45.95% and the “increase of AUC0-∞ by food intake” value ([1]; fed compared with fasted) was 45.65%. The “rise in AUC with a meal” value ([1]; fed compared with fasted) was 45%, the AUC0-t ([1]; fed) was 5305.30 ± 1948.11 ng·h/mL and the “AUC0-∞” value ([1]; fed) was 5710.59 ± 2,100.68 h·ng/mL. For the same compound, the “postprandial increase in AUC” value ([1]; females) was 69.9%, the “postprandial increase in Cmax” value ([1]; females) was 33.5% and the “postprandial increase in AUC” value ([1]; males) was 38.2%. The “postprandial increase in Cmax” value ([1]; males) was 20.9%, the “TEAE Abdominal discomfort, n (%)” value ([2]; Fasted) was 7.42% and the “TEAE Abdominal pain, n (%)” value ([2]; Fasted) was 4.94%. For the same compound, the “TEAE Blood bilirubin increased, n (%)” value ([2]; Fasted) was 1.23%, the “TEAE Blood triglycerides increased, n (%)” value ([2]; Fasted) was 7.42% and the “TEAE Diarrhea, n (%)” value ([2]; Fasted) was 13.58%. The “TEAE Nausea, n (%)” value ([2]; Fasted) was 7.42%, the “TEAE Protein total decreased, n (%)” value ([2]; Fasted) was 1.23% and the “TEAE Thrombocyte count decreased, n (%)” value ([2]; Fasted) was 1.23%. For the same compound, the “TEAE White blood cells urine positive, n (%)” value ([2]; Fasted) was 2.47%, the “TEAE emesis, n (%)” value ([2]; Fasted) was 6.17% and the “TEAE laboratory tests, n (%)” value ([2]; Fasted) was 13.58%. For the same compound, the “TEAE Abdominal discomfort, n (%)” value ([2]; Fed) was 11.11%, the “TEAE Abdominal pain, n (%)” value ([2]; Fed) was 2.47% and the “TEAE Blood bilirubin increased, n (%)” value ([2]; Fed) was 1.23%. The “TEAE Blood bilirubin unconjugated increased, n (%)” value ([2]; Fed) was 1.23%, the “TEAE Blood triglycerides increased, n (%)” value ([2]; Fed) was 4.94% and the “TEAE Diarrhea, n (%)” value ([2]; Fed) was 12.35%. The “TEAE Gastrointestinal Disorders, n (%)” value ([2]; Fed) was 33.33%, the “TEAE Head discomfort, n (%)” value ([2]; Fed) was 1.23% and the “TEAE Nausea, n (%)” value ([2]; Fed) was 3.7%. The “TEAE Nervous System Disorders, n (%)” value ([2]; Fed) was 1.23%, the “TEAE Protein total decreased, n (%)” value ([2]; Fed) was 1.23% and the “TEAE Red blood cells urine positive, n (%)” value ([2]; Fed) was 1.23%. For the same compound, the “TEAE Urinary occult blood positive, n (%)” value ([2]; Fed) was 2.47%, the “TEAE emesis, n (%)” value ([2]; Fed) was 3.7% and the “adverse events related to the drug” value ([2]; both periods) was 77. For the same compound, the “drug-related adverse events of grade II” value ([2]; both periods) was “two”, the “serious adverse events, deaths, unexpected serious adverse reactions” value ([2]; both periods) was “No serious adverse events, deaths, or unexpected serious adverse reactions occurred” and the “subjects with adverse events” value [2, 8] was 16. The “total adverse events (AEs)” value [2, 8] was 81, the “average time to spontaneous resolution of gastrointestinal reactions” value ([2]; fasted period (range: 0–10 h)) was 3.2 h and the “average time of occurrence of gastrointestinal reactions post-dosing” value ([2]; fasted period (range: 1.7–7.3 h)) was 4.2 h. For the same compound, the “average time to spontaneous resolution of gastrointestinal reactions” value ([2]; fed period (range: 0–9.8 h)) was 2.2 h, the “average time of occurrence of gastrointestinal reactions post-dosing” value ([2]; fed period (range: 2.1–8.4 h)) was 4.3 h and the freeze-thaw stability ([3]; method validation) was “endured four freeze-thaw cycles”. For the same compound, the “stability at room temperature” value ([3]; method validation) was “at least 23.5 h”, the long-term stability ([3]; −20°C) was 89 days and the long-term stability ([3]; −80°C) was 89 days. The “time to steady-state plasma concentrations” value ([4]; continuous dosing) was “approximately 7 days”, the “exposure increase with dose escalation” value ([4]; dose range 20–150 mg, single administration) was “exposure increase ratio slightly exceeding the dose increase ratio” and the “inhibition of CDK4/6 kinase activity” value (CDK4/6) was “potent inhibitory effects”. For the same compound, the “inhibition of proliferation of MCF-7 cells” value [5] was “selectively inhibits proliferation”, the “anti-tumor efficacy compared with Palbociclib” value (MCF-7 tumor; human MCF-7 xenograft model) was “comparable anti-tumor efficacy to Palbociclib at reduced dosage levels” and the MCF-7 tumor growth (MCF-7 tumor; in vivo) was “suppresses MCF-7 tumor growth in vivo”. The preclinical toxicity findings [6] was “gastrointestinal toxicity and hematological/serum biochemical abnormalities were observed at medium-to-high dose levels”.
